This is an account of results in patent publication US11000033B2, “Ketone or oxime compound, and herbicide” (NISSAN CHEMICAL CORPORATION, priority 2014, dated 2021).

What all share (type): in vivo
The test system of data set [1] is Stellaria media. Nature of the data set: Test Example 4: herbicidal effect by soil treatment (symbol P). Particulars: for P: Stellaria media, herbicidal effect grade: 320 g/ha. Put shortly: (§1)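 Seeds were sown in sterilized diluvial soil, covered with about 1.5 cm of soil, and the soil surface was sprayed with a water-diluted emulsion of the compound at a predetermined rate. Plants grew in a greenhouse at 25° C. to 30° C.; effects were scored visually 3 weeks after application.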

The test system of data set [2] is Alopecurus myosuroides. Nature of the data set: Test Example 5: herbicidal effect by foliage application, plastic box (symbol J). Particulars: 320 g/ha, 3 weeks after application. An outline of the steps: (§2)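 Post-emergence spray; diluvial soil (sterilized), ~1.5 cm seed cover; greenhouse 25–30° C; 14-day-old plants; water-diluted emulsion at predetermined dose; visual score at 3 wk post-treatment.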

Data set [3] deals with Stellaria media. Nature of the data set: Test Example 5: herbicidal effect by foliage application, plastic box (symbol P). The following applies: 320 g/ha, 3 weeks after application. An outline of the steps:
as §2

The subject of a further data set is Digitaria ciliaris. In words: Test Example 4: herbicidal effect by soil treatment (symbol F). Particulars: for F: Digitaria ciliaris, herbicidal effect grade: 320 g/ha. An outline of the steps:
as §1

The next data set relates to Lolium multiflorum Lam. In words: Test Example 4: herbicidal effect by soil treatment (symbol K). The following applies: for K: Lolium multiflorum Lam., herbicidal effect grade: 320 g/ha. Put shortly:
as §1

In another data set the test system is Scirpus juncoides. In words: Test Example 2: herbicidal activity, application during weed generation in submerged conditions (symbol B). The following applies: Table 23; application herbicide amount 320 g/ha; grade 0-5 by criteria of Test Example 1. Put shortly:
(§3)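 Treatment timing was the one- to two-leaf stage, with diluted emulsifiable compound dropped onto the paddy water (depth 4 cm) over alluvial soil. All three species grew from a mixed sowing in a 25° C. to 30° C. greenhouse. Injury was judged by eye 3 weeks on.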

A further data set concerns Chenopodium album. Nature of the data set: Test Example 5: herbicidal effect by foliage application, plastic box (symbol O). Particulars: 320 g/ha, 3 weeks after application. Put shortly: as §2
A further data set deals with rice. Nature of the data set: Test Example 4: effect on crop by soil treatment (symbol b). The following applies: for b: directly sowed rice plant, effect grade on crop: 320 g/ha. An outline of the steps: (§4)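 Diluvial soil (sterilized) in boxes; seeds placed spot-wise alongside weed species; ~1.5 cm covering soil. Greenhouse, 25–30° C.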
In the next data set the test system is Veronica persica. Nature of the data set: Test Example 4: herbicidal effect by soil treatment (symbol R). Particulars: for R: Veronica persica, herbicidal effect grade: 320 g/ha. Put shortly: as §1
Data set [4] relates to Echinochloa oryzacola Vasing. Nature of the data set: Test Example 2: herbicidal activity, application during weed generation in submerged conditions (symbol A). The following applies: Table 23; application herbicide amount 320 g/ha; grade 0-5 by criteria of Test Example 1. An outline of the steps:
as §3

In a further data set the test system is Leptochloa chinensis. In words: Test Example 3: herbicidal effect by foliage application, Wagner pot (symbol D). The following applies: application herbicide amount 320 g/ha. An outline of the steps:
(§5)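 The compound, formulated as an emulsion and diluted with water to a predetermined rate, is applied uniformly to leaves of two-week-old seedlings growing in submerged alluvial soil at 25–30 °C. Rice is included. Each plant is assessed 3 weeks later using defined criteria.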

For data set [5], the system named is Echinochloa crus-galli var. crus-galli. In words: Test Example 5: herbicidal effect by foliage application, plastic box (symbol H). The following applies: 320 g/ha, 3 weeks after application. An outline of the steps:
as §2

Data set [6] has the same test system. Nature of the data set: Test Example 3: herbicidal effect by foliage application, Wagner pot (symbol H). Particulars: application herbicide amount 320 g/ha. An outline of the steps:
as §5

A further data set concerns wheat. In words: Test Example 4: effect on crop by soil treatment (symbol e). Particulars: for e: wheat, effect grade on crop: 320 g/ha. Put shortly:
as §4

For data set [7], the system named is Alopecurus myosuroides. Nature of the data set: Test Example 4: herbicidal effect by soil treatment (symbol J). Particulars: for J: Alopecurus myosuroides, herbicidal effect grade: 320 g/ha. Put shortly:
as §1

Another data set concerns rice plant. Nature of the data set: Test Example 5: effect on crop by foliage application, plastic box (symbol b). The following applies: 320 g/ha, 3 weeks after application. Put shortly:
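Plants were raised from seed in a greenhouse (25° C. to 30° C.) after sowing in a plastic box of sterilized diluvial soil.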

The subject of the next data set is Amaranthus retroflexus. Nature of the data set: Test Example 5: herbicidal effect by foliage application, plastic box (symbol N). The following applies: 320 g/ha, 3 weeks after application. Put shortly: as §2
Another data set relates to Avena fatua. Nature of the data set: Test Example 4: herbicidal effect by soil treatment (symbol I). Particulars: for I: Avena fatua, herbicidal effect grade: 320 g/ha. An outline of the steps: as §1
The test system of the next data set is Setaria viridis. In words: Test Example 4: herbicidal effect by soil treatment (symbol G). The following applies: for G: Setaria viridis, herbicidal effect grade: 320 g/ha. An outline of the steps: as §1
Setting [8] is: application herbicide amount 320 g/ha.

Each structure is given as a SMILES string.

Take `CON=C(C)CC1CC(OC(=O)C#C[Si](C)(C)C)=C(c2c(C)cc(C)cc2C)C1=O` (stereo not drawn) [1-096]: in the data set on Stellaria media [1], the “P: Stellaria media, herbicidal effect grade” value was 0 (Herbicidal ratio of 5% or lower (almost no effect)). Moreover, the “J: Alopecurus myosuroides, herbicidal effect (criteria 0-5)” value with Alopecurus myosuroides [2] is reported as 5 (Herbicidal ratio of 90% or more (almost completely withered)). Further, in the data set with Stellaria media [3], the “P: Stellaria media, herbicidal effect (criteria 0-5)” value was 2 (Herbicidal ratio of 20% or higher and lower than 40%). Besides, in the data set with Digitaria ciliaris, the “F: Digitaria ciliaris, herbicidal effect grade” value was 5 (Herbicidal ratio of 90% or more (almost completely withered)). Further, the “K: Lolium multiflorum Lam., herbicidal effect grade” value with Lolium multiflorum Lam. was 5 (Herbicidal ratio of 90% or more (almost completely withered)). Further, in the data set on Scirpus juncoides, the “Herbicidal effect grade, B: Scirpus juncoides” value (from here on “Herbicidal effect grade, B”) was 5 (Herbicidal ratio of 90% or more (almost completely withered)). Moreover, the “O: Chenopodium album, herbicidal effect (criteria 0-5)” value with Chenopodium album is 2 (Herbicidal ratio of 20% or higher and lower than 40%). The “b: directly sowed rice plant, effect grade on crop” value in the data set on rice was 5 (Herbicidal ratio of 90% or more (almost completely withered)). Also, the “R: Veronica persica, herbicidal effect grade” value in the data set with Veronica persica is 0 (Herbicidal ratio of 5% or lower (almost no effect)). Besides, the “Herbicidal effect grade, A: Echinochloa oryzacola Vasing.” value in data set [4] is recorded as 5 (Herbicidal ratio of 90% or more (almost completely withered)). In the data set on Leptochloa chinensis, the “herbicidal effect on D (Leptochloa chinensis), grade 0-5” value is given as 5 (Herbicidal ratio of 90% or more (almost completely withered)). Further, in data set [5], the “H: Echinochloa crus-galli var. crus-galli, herbicidal effect (criteria 0-5)” value was 5 (Herbicidal ratio of 90% or more (almost completely withered)). Further, in data set [6], the “herbicidal effect on H (Echinochloa crus-galli var. crus-galli), grade 0-5” value is 5 (Herbicidal ratio of 90% or more (almost completely withered)). Besides, in the data set on wheat, the “e: wheat, effect grade on crop” value is 3 (Herbicidal ratio of 40% or higher and lower than 70%). For the same compound, in the data set on Alopecurus myosuroides [7], the “J: Alopecurus myosuroides, herbicidal effect grade” value is on record as 5 (Herbicidal ratio of 90% or more (almost completely withered)). In the data set with rice plant, the “b: directly sowed rice plant, effect on crop (criteria 0-5)” value was 5 (Herbicidal ratio of 90% or more (almost completely withered)). Also, in the data set with Amaranthus retroflexus, the “N: Amaranthus retroflexus, herbicidal effect (criteria 0-5)” value was 2 (Herbicidal ratio of 20% or higher and lower than 40%). Moreover, the “I: Avena fatua, herbicidal effect grade” value with Avena fatua was 3 (Herbicidal ratio of 40% or higher and lower than 70%). Besides, the “G: Setaria viridis, herbicidal effect grade” value in the data set with Setaria viridis is 5 (Herbicidal ratio of 90% or more (almost completely withered)).

Regarding `COC(=O)c1ccc(CON=C(C)CC2CC(O)=C(c3c(C)cc(C)cc3C)C2=O)cc1` (stereo not drawn) [1-118], in the data set on Stellaria media [1], the “P: Stellaria media, herbicidal effect grade” value is reported as 0 (Herbicidal ratio of 5% or lower (almost no effect)). In addition, in the data set on Alopecurus myosuroides [2], the “J: Alopecurus myosuroides, herbicidal effect (criteria 0-5)” value is 4 (Herbicidal ratio of 70% or higher and lower than 90%). Also, in the data set with Stellaria media [3], the “P: Stellaria media, herbicidal effect (criteria 0-5)” value is 3 (Herbicidal ratio of 40% or higher and lower than 70%). For the same compound, the “F: Digitaria ciliaris, herbicidal effect grade” value with Digitaria ciliaris is 3 (Herbicidal ratio of 40% or higher and lower than 70%). For the same compound, the “K: Lolium multiflorum Lam., herbicidal effect grade” value in the data set with Lolium multiflorum Lam. is 3 (Herbicidal ratio of 40% or higher and lower than 70%). Besides, the “Herbicidal effect grade, B” value in the data set on Scirpus juncoides is recorded as 0 (Herbicidal ratio of 5% or lower (almost no effect)). Also, the “O: Chenopodium album, herbicidal effect (criteria 0-5)” value in the data set on Chenopodium album was 3 (Herbicidal ratio of 40% or higher and lower than 70%). In the data set on rice, the “b: directly sowed rice plant, effect grade on crop” value is 5 (Herbicidal ratio of 90% or more (almost completely withered)). Moreover, the “R: Veronica persica, herbicidal effect grade” value in the data set on Veronica persica is 0 (Herbicidal ratio of 5% or lower (almost no effect)). Moreover, the “Herbicidal effect grade, A: Echinochloa oryzacola Vasing.” value in [4] was 2 (Herbicidal ratio of 20% or higher and lower than 40%). In the data set on Leptochloa chinensis, the “herbicidal effect on D (Leptochloa chinensis), grade 0-5” value is recorded as 0 (Herbicidal ratio of 5% or lower (almost no effect)). Besides, the “H: Echinochloa crus-galli var. crus-galli, herbicidal effect (criteria 0-5)” value in data set [5] was 2 (Herbicidal ratio of 20% or higher and lower than 40%). Besides, the “herbicidal effect on H (Echinochloa crus-galli var. crus-galli), grade 0-5” value in data set [6] was 4 (Herbicidal ratio of 70% or higher and lower than 90%). The “e: wheat, effect grade on crop” value in the data set with wheat was 0 (Herbicidal ratio of 5% or lower (almost no effect)). The “J: Alopecurus myosuroides, herbicidal effect grade” value in the data set with Alopecurus myosuroides [7] is 3 (Herbicidal ratio of 40% or higher and lower than 70%). In the data set on rice plant, the “b: directly sowed rice plant, effect on crop (criteria 0-5)” value is 4 (Herbicidal ratio of 70% or higher and lower than 90%). In addition, the “N: Amaranthus retroflexus, herbicidal effect (criteria 0-5)” value in the data set with Amaranthus retroflexus is 0 (Herbicidal ratio of 5% or lower (almost no effect)). Also, the “I: Avena fatua, herbicidal effect grade” value in the data set with Avena fatua is reported as 0 (Herbicidal ratio of 5% or lower (almost no effect)). Further, the “G: Setaria viridis, herbicidal effect grade” value with Setaria viridis was 2 (Herbicidal ratio of 20% or higher and lower than 40%).

Consider `CC#Cc1cc(C)c(C2=C(O)CC(CC(=NOC)C(C)C)C2=O)c(C)c1` (stereo not drawn) [9-006], for which the “Herbicidal effect grade, P: Stellaria media” value in the data set on Stellaria media [1] (setting [8]) is reported as 0 (Herbicidal ratio of 5% or lower (almost no effect)). Moreover, in the data set with Alopecurus myosuroides [2], the “J: Alopecurus myosuroides, herbicidal effect grade” value is on record as 5 (Herbicidal ratio of 90% or more (almost completely withered)). Also, the “P: Stellaria media, herbicidal effect grade” value in the data set with Stellaria media [3] is 3 (Herbicidal ratio of 40% or higher and lower than 70%). For the same compound, in the data set with Digitaria ciliaris (setting [8]), the “Herbicidal effect grade, F: Digitaria ciliaris” value was 5 (Herbicidal ratio of 90% or more (almost completely withered)). For the same compound, in the data set with Lolium multiflorum Lam. (setting [8]), the “Herbicidal effect grade, K: Lolium multiflorum Lam.” value is given as 5 (Herbicidal ratio of 90% or more (almost completely withered)). Moreover, in the data set with Scirpus juncoides, the “Herbicidal effect grade, B” value is 4 (Herbicidal ratio of 70% or higher and lower than 90%). Besides, the “O: Chenopodium album, herbicidal effect grade” value in the data set on Chenopodium album is 2 (Herbicidal ratio of 20% or higher and lower than 40%). Also, the “Effect on crop grade, b: directly sowed rice plant” value in the data set with rice (setting [8]) is 5 (Herbicidal ratio of 90% or more (almost completely withered)). The “Herbicidal effect grade, R: Veronica persica” value with Veronica persica (setting [8]) was 4 (Herbicidal ratio of 70% or higher and lower than 90%). Moreover, the “Herbicidal effect grade, A: Echinochloa oryzacola Vasing.” value in data set [4] was 5 (Herbicidal ratio of 90% or more (almost completely withered)). The “D (Leptochloa chinensis) herbicidal effect grade” value in the data set on Leptochloa chinensis (Table 24) was 5 (Herbicidal ratio of 90% or more (almost completely withered)). The “H: Echinochloa crus-galli var. crus-galli, herbicidal effect grade” value in data set [5] is 5 (Herbicidal ratio of 90% or more (almost completely withered)). In addition, the “H (Echinochloa crus-galli var. crus-galli) herbicidal effect grade” value in data set [6] (Table 24) is given as 5 (Herbicidal ratio of 90% or more (almost completely withered)). Besides, in the data set with wheat (setting [8]), the “Effect on crop grade, e: wheat” value is listed as 5 (Herbicidal ratio of 90% or more (almost completely withered)). For the same compound, in the data set on Alopecurus myosuroides [7] (setting [8]), the “Herbicidal effect grade, J: Alopecurus myosuroides” value is listed as 5 (Herbicidal ratio of 90% or more (almost completely withered)). For the same compound, the “b: directly sowed rice plant, effect on crop grade” value in the data set with rice plant is reported as 5 (Herbicidal ratio of 90% or more (almost completely withered)). The “N: Amaranthus retroflexus, herbicidal effect grade” value in the data set with Amaranthus retroflexus is 0 (Herbicidal ratio of 5% or lower (almost no effect)). Besides, the “Herbicidal effect grade, I: Avena fatua” value with Avena fatua (setting [8]) is 4 (Herbicidal ratio of 70% or higher and lower than 90%). The “Herbicidal effect grade, G: Setaria viridis” value with Setaria viridis (setting [8]) was 5 (Herbicidal ratio of 90% or more (almost completely withered)).
